The values that follow come from PMC12774438, “CBL ubiquitin ligase targets translation as a degrader E3” (Chemical Science, 2025).

For one data set, the target named is T1, eIF4E (Homo sapiens, UniProt P06730).
T1 construct: assessed the effects on the endogenous levels of eIF4E; endogenous in cells; host or cells: HeLa
In words: Western blot of endogenous eIF4E (and eIF4A, eIF4G, FITC) in HeLa cells. To be noted: 3 h, result in words; for eIF4E degradation, PROTAC versus individual warheads: 10 µM. Type of data set: cell-based. Here is the method:
Western blot procedures for cell-based assays
Three washes with 1 mL PBS were performed before harvesting cells with a cell lifter. The cells were frozen in liquid nitrogen and stored at -70°C. The lysis buffer comprised 50 mM Tris-HCl (pH 7.5), 150 mM NaCl, 1% Triton-X, 1% SDS, 1 μL benzonase and one tablet of the Pierce TM Protease Inhibitor Tablets, EDTA-free (ThermoFisher Sceintific) in PBS except for HA-tag and Myc-tag IP. As for HA-tag and Myc-tag IP, the lysis buffer consisted of 50 mM Tris-HCl (pH 7.5), 150 mM NaCl, 1 mM EDTA, 1% IGEPAL CA-630, 10% glycerol, 20 μM PMSF, 1 mM DTT, and a single Protease Inhibitor Tablet in PBS.
The cells were lysed in 35 μL lysis buffer at 4°C by vortexing every 10 min over a period of 90 min. Protein concentration in the cell lysate was measured by Bradford assay.
Lysates were immunoprecipitated in addition to inputs when appropriate. SDS-PAGE and immunoblotting analysis were performed subsequently. […]
CellTiter-Glo2.0 Cell Viability Assay […]
A 13-point serial dilution series of 0.163 μM –
24.4 μM of each peptide dissolved in DMSO was dispensed with the highest concentration of DMSO at less than 0.5%. Three replicates were run per condition. The assay plate was incubated for 3 hr or 8 hr at 37°C, 5% CO 2. Following this, the liquid on the assay plate was removed using the Bluewasher. […]
Comparison of CP-eIFTerminator peptides and warheads in HeLa cells
HeLa cells were seeded in 6 cm dishes at a cell density of 1.5 x10^6 per dish. After overnight incubation at 37°C, 5% CO 2, cells were treated with […] along with 10 μM of respective cell-penetrating peptides. Peptides were reconstituted in water immediately before addition to the cell culture. An equal volume of water was added as a negative control.
Cells were harvested 3 hr after peptide incubation at 37°C, 5% CO 2 for western blot analysis.
Anti-actin, anti-eIF4EA, anti-eIF4E, anti-eIF4G, and anti-FITC antibodies, as well as […]
secondary IgG in Table 3 were used for Western blot.
Time course of CP-eIFTerminator4 in HeLa cells
0.5 x 10^6 HeLa cells were seeded in 35 mm dishes. A time course experiment was initiated after overnight incubation at 37°C, 5% CO 2. For each time point (0.5, 3, 6, 12, 24 hr), cells were treated with fresh medium containing 100 ng/mL EGF along with 20 μM CP-eIFTerminator4 or water. All dishes were harvested at the same time, after varying incubations with the peptide.
Titration of CP-eIFTerminator4 in HeLa and U-2 OS cells […]
Immediately after this, 2.5 μM, 10 μM, or 50 μM CP-eIFTerminator4 was added to U-2 OS cells. 5 μM, 10 μM, or 20 μM CP-eIFTerminator4 was added in the case of HeLa cells. […]
15022) or 50 μM chloroquine (Cell Signaling Technology, Cat. No.: 14774S) and incubated for 4 hr at 37 °C, 5% CO 2. […] The cell lysates were analysed by western blot. […]

The test system of another data set is HeLa cells. In words: CellTiter-Glo2.0 cell viability assay. The settings on record: for viable cells (lowest): concentrations of 16.10 µM or higher. The class given is cell-based. Here is the method: Supplementary Figure 5. Characterisation of cytotoxicity effects of CP-eIFTerminators and […]
A. Measurement of cell viability (%) in HeLa cells following 3-hr treatments with cell-penetrating peptides. A Cell Titer-Glo2.0 cell viability assay was performed to assess viability of HeLa cells following a 3-hr treatment with a dilution series of each CP-eIFTerminator or parental warhead (CP-CBLock or CP-eIF4G1-D5S). The concentration range of each peptide in the 13-point serial dilution was 0.16-24.4 μM.
Data on CP-eIFTerminator2 are not shown as it was insoluble (n = 3, mean ± Standard error of the mean (SEM)).
B. Measurement of cell viability (%) in HeLa cells following 8 hr treatments with cell- […]
viability of HeLa cells following an 8-hr treatment with a dilution series of each CP-eIFTerminator, CP-CBLock, or CP-eIF4G1-D5S. The concentration range of each peptide in the 13-point serial dilution was 0.16-24.4 μM. CP-eIFTerminator2 was not
(1 picture or pasted object on this page, not shown here)
MgCl2. After the liquid was removed, 30 μL 2x LDS mix (prepared as described above) was used to elute the IP samples. The samples were boiled at 92°C for 10 min and 28 μL were loaded on a 4-12% Bis-Tris SDS-PAGE gel, along with the whole cell lysates that were prepared in 75 μL RIPA buffer. The gel was subsequently transferred and western blotted.
Antibodies included anti-actin, anti-HA, anti-K48 antibodies as primaries, as well as IRDye800CW goat anti-mouse IgG secondary antibody and IRDye680LT goat anti-rabbit […]
CellTiter-Glo2.0 Cell Viability Assay
Cells were seeded onto a Greiner 384 small volume plate using a Multidrop TM Combi Reagent Dispenser (Thermo Scientific). The seeding density was 2000 cells/well in a volume of 15 μL per well. After incubating the 384-well plate overnight at 37°C, 5% CO 2, the medium on the plate was removed using a Bluewasher (Blue Cat Bio). […] The plate was read using a PHERAstar FSX (BMG Labtech). Raw data were exported from the Pherastar as a Microsoft Excel file and analysed in Excel, and the processed data were plotted in GraphPad Prism v9.5.1. […]
For orientation: In ATP-based viability assays light output follows the ATP content of the culture.

Where a SMILES comes first, the peptide text is derived from it.

T1 sequence (P06730 whole entry): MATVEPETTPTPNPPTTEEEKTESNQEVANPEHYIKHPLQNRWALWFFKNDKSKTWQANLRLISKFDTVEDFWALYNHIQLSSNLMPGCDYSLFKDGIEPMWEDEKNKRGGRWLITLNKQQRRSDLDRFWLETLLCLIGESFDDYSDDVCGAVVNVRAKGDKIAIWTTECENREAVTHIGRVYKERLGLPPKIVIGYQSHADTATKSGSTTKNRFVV

`CC[C@H](C)[C@H](NC(=O)[C@H](CCCCN)NC(=O)[C@@H](NC(=O)[C@H](CCC(N)=O)NC(=O)[C@@H](N)CCCNC(=N)N)[C@@H](C)CC)C(=O)N[C@@H](Cc1c[nH]c2ccccc12)C(=O)N[C@@H](Cc1ccccc1)C(=O)N[C@@H](CCC(N)=O)C(=O)N[C@@H](CC(N)=O)C(=O)N[C@@H](CCCNC(=N)N)C(=O)N[C@@H](CCCNC(=N)N)C(=O)N[C@@H](CCSC)C(=O)N[C@@H](CCCCN)C(=O)N[C@@H](Cc1c[nH]c2ccccc12)C(=O)N[C@@H](CCCCN)C(=O)N[C@@H](CCCCN)C(=O)NCC(=O)NCC(=O)N[C@@H](CO)C(=O)N[C@@H](CCCCN)C(=O)N[C@@H](CCCCN)C(=O)N[C@@H](CCCNC(=N)N)C(=O)N[C@@H](Cc1ccc(O)cc1)C(=O)N[C@@H](CO)C(=O)N[C@@H](CCCNC(=N)N)C(=O)N[C@@H](CCC(=O)O)C(=O)N[C@@H](Cc1ccccc1)C(=O)N[C@@H](CC(C)C)C(=O)N[C@@H](CC(C)C)C(=O)NCC(=O)N[C@@H](Cc1ccccc1)C(N)=O` [CP-eIF4G1-D5S] (H-RQIKIWFQNRRMKWKKGGSKKRYSREFLLGF-NH2; N-terminus assumed): on eIF4E, the “eIF4E degradation, PROTAC versus individual warheads” value was “do not trigger eIF4E degradation”; the “effect on eIF4A1, eIF4E and eIF4G1 levels” value is recorded as “minimal effects”. Moreover, the “viable cells (lowest)” value with HeLa cells (3 h post-peptide treatment) is recorded as at least 35%. In the data set on HeLa cells (8 h post-peptide treatment), the “viable cells (lowest)” value is at least 25%. In the data set on HeLa cells (CellTiter-Glo2.0, 0.16–24.4 µM, 3 h and 8 h, 100 ng/mL EGF, n = 3), the “concentration at which cytotoxicity was exhibited” value was at least 16.10 µM.
With “N'-RQIKIWFQNRRMKWKKGGSMTVEEMDSWIKSWDQR-C' [CP-CBLock]”, on eIF4E, the “eIF4E degradation, PROTAC versus individual warheads” value was “do not trigger eIF4E degradation”; the “effect on eIF4A1, eIF4E and eIF4G1 levels” value is listed as “minimal effects”.
